From patent publication US7718641B2, “Pyrrolo [3,4-H] isoquinoline compounds and methods for modulating gated ion channels” (Aros Pharma ApS, priority 2005, dated 2010)

Assays:
[1] = tested on: rat dorsal root ganglion neurons; experiment: Patch clamp (voltage clamp) of native proton-gated currents in rat dorsal root ganglion neurons in primary culture; type: cell-based; details: 1 μM, voltage-clamp mode, n=3
Procedure: These endogenous proton-activated inward currents were recorded in the presence and absence of Compound A (1 μM) or Compound H (1 μM) using the whole cell configuration of the patch clamp method (voltage clamp mode).
Sensory neurons can be isolated and cultured in vitro from different animal species. The most widely used protocols use sensory neurons isolated from neonatal (Eckert, et al. (1997) J Neurosci Methods 77:183-190) and embryonic (Vasko, et al. (1994) J Neurosci 14:4987-4997) rat. […] Electrophysiology is performed similarly as described above in Example 2. […] In the current-clamp mode, change in the trans-membrane potential are recorded. Under acidic conditions (e.g., pH 6.5) the membrane depolarizes, leading to the firing of action potentials, as shown in FIGS. 7A and 7B.

[2] = tested on: formalin-induced pain; experiment: Formalin test, model of acute tonic pain; type: in vivo, rat
Procedure: Male Sprague-Dawley rats are housed together in groups of three animals under standard conditions with unrestricted access to food and water. All experiments are conducted according to the ethical guidelines for investigations of experimental pain in conscious animals (Zimmerman, 1983)
Assessment of formalin-induced flinching behavior in normal, uninjured rats (body weight 150-180 g) was made with the use of an Automated Nociception Analyser (University of California, San Diego, USA). Briefly, this involved placing a small C-shaped metal band (10 mm wide×27 mm long) on the hindpaw of the rat to be tested. The rats (four rats were included in each testing session) were then placed in a cylindrical plexiglass observation chamber (diameter 30.5 cm and height 15 cm) for 20 min for adaptation purposes prior to being administered drug or vehicle according to the experimental paradigm being followed. After adaptation, individual rats were then gently restrained and formalin (5% in saline, 50 μl, s.c.) was injected into the plantar surface of the hindpaw using a 27G needle. Rats were then returned to their separate observation chambers, each of which were in turn situated upon an enclosed detection device consisting of two electromagnetic coils designed to produce an electromagnetic field in which movement of the metal band could be detected. The analogue signal was then digitised and a software algorithm (LabView) applied to enable discrimination of flinching behaviour from other paw movements. A sampling interval of 1 min was used and on the basis of the resulting response patterns 5 phases of nociceptive behaviour were identified and scored: first phase (P1; 0-5 min), interphase (Int; 6-15 min), second phase (P2; […]), phase 2A (P2A; 16-40 min) and phase 2B (P2B; 41-60 min).
Nociceptive behavior was also determined manually every 5 min by measuring the amount of time spent in each of four behavioral categories: 0, treatment of the injected hindpaw is indistinguishable from that of the contralateral paw; 1, the injected paw has little or no weight placed on it; 2, the injected paw is elevated and is not in contact with any surface; 3, the injected paw is licked, bitten, or shaken. A weighted nociceptive score, ranging from 0 to 3 was calculated by multiplying the time spent in each category by the category weight, summing these products, and dividing by the total time for each 5 min block of time. (Coderre et al., Pain 1993; 54: 43). On the basis of the resulting response patterns, […] of nociceptive behavior were identified and scored: first phase (P1; 0-5 min), interphase (Int; 6-15 min), second phase (P2; […]), phase 2A (P2A; 16-40 min) and phase 2B (P2B; 41-60 min). […]

| Structure (SMILES) | effect on pH 6.5-induced inward current in sensory neurons [1] | pain intensity as evaluated by the flinching behavior ([2]; Automated Nociception Analyser, n=6-8) | ED50 ([2]; Rattus norvegicus, ip, i.p. 30 min before formalin, phase 2 (phase IIa), rat, read-out: ED50, total pain score in the formalin test) [mg/kg] | total pain score behavior (flinching, licking, biting) ([2]; i.p. 30 min before formalin, phase 1 and 2, n=6-8) |
| --- | --- | --- | --- | --- |
| CCN1CCc2c(-c3ccccc3)cc3c(c2C1)NC(=O)/C3=N/O [Compound H, 5-phenyl-6,7,8,9-tetrahydro-3-(hydroxyimino)-8-ethyl-1H-pyrrolo[3,2-h]isoquinoline-2(3H)-one] | inhibit the pH 6.5-induced inward current | dose-dependent reduction of the pain intensity | – | – |
| COc1ccc(F)cc1-c1cc2c(c3c1CCN(C)C3)NC(=O)/C2=N/O [Compound A, 5-(5-fluoro-2-methoxyphenyl)-6,7,8,9-tetrahydro-3-(hydroxyimino)-8-methyl-1H-pyrrolo[3,2-h]isoquinoline-2(3H)-one] | inhibit the pH 6.5-induced inward current | – | ~12 | reduce the total pain score behavior |
